Assay results published in patent US20160022605A1, “METHODS FOR REDUCING MICROSATELLITE INSTABILITY INDUCED BY CHEMOTHERAPY AND METHODS FOR SCREENING ANTIOXIDANTS THAT SUPPRESS DRUG-INDUCED MICROSATELLITE INSTABILITY WHILE ENHANCING THE CYTOTOXICITY OF CHEMOTHERAPEUTIC AGENTS” (priority 2014, published 2016).
Entries after “also recorded” stand apart in the source; their conditions may differ.

Legend:
HCT116-(CA)13 cells [1] = settings: 5 mM GSH
Protocol: After treatment, HCT116-(CA)13 cells in 96-well glass plates (Corning-Costar®) were fixed with 4% paraformaldehyde and nuclei were stained with 1 μg/ml Hoechst 33258. Fluorescent images of the cells were acquired at 100× magnification by ImageXpress^Micro system (Molecular Devices) and analyzed with MetaXpress® V3.1 software as described previously [Li et al., 2014]. The frequency of frameshift mutations of the (CA)13 microsatellite is expressed as the percentage of the DsRed^+GFP^+Hoechst^+ subpopulation in the GFP^+Hoechst^+ population.

HCT116-(CA)13 cells [2] = assay: REDOX library screen by high-content microscopy (MSI frequency and cell numbers); format: cell-based, human; settings: 1 μM oxaliplatin, additional concentrations, 3-day co-treatment, 3-day recovery
Protocol: The REDOX library (Cat# BML-2835, ENZO, USA) is composed of 84 compounds that were supplied at 10 mM in DMSO. HCT116-(CA)13 cells were seeded at 1×10^4 cells per well in 96-well glass plates containing 100 μl growth medium. One day after seeding, the cells were co-treated with 1 μM oxaliplatin and an antioxidant at specified concentrations in triplicate for three days, followed by a 3-day recovery in fresh growth medium without the drug and antioxidants.

HCT116 cells = assay: MTT assay, oxaliplatin co-treatment in MMR-deficient cells; settings: MMR-deficient HCT116, 1 μM oxaliplatin with 2-10 μM antioxidant, 3-day co-treatment
Protocol: (§1) Cell viability was determined by the MTT assay. Briefly, the optical density of colored formazan converted from MTT by viable cells was determined as previously described [Chang et al., 2002] at 595 nm with an ELISA reader (Thermo Labsystems). Cell viability is expressed as the optical density value of drug-treated cells relative to that of solvent-treated cells, after subtracting the background from the medium.

HCT116+chr3 cells = assay: MTT assay in MMR-proficient cells; settings: MMR-proficient HCT116+chr3, 1 μM oxaliplatin with 2-10 μM antioxidant, 3-day co-treatment
Protocol: as §1

In the case of `COc1cc(/C=C/C(=O)CC(=O)/C=C/c2ccc(O)c(OC)c2)ccc1O` [curcumin, (1E,6E)-1,7-bis(4-hydroxy-3-methoxyphenyl)hepta-1,6-diene-3,5-dione], the “suppression of methotrexate-induced MSI” value (HCT116-(CA)13 cells [1]; 25 nM methotrexate with 2.5 mM NAC, 250 μM vitamin C or 1.5 μM curcumin) is reported as “did not affect methotrexate-induced MSI”, the “suppression of CCNU-induced MSI” value (HCT116-(CA)13 cells [1]; 50 μM CCNU with 2.5 mM NAC, 250 μM vitamin C, 1.5 μM curcumin or 150 μM eugenol) is reported as “approximately 55%” and the “outcome of secondary screen: oxaliplatin-induced MSI and oxaliplatin-mediated cytotoxicity” value (HCT116-(CA)13 cells [2]) is reported as “most promising antioxidants”. The “effect on oxaliplatin-mediated cytotoxicity” value (“effect” below) (HCT116 cells) was “did not show a significant effect” and the “effect” value (HCT116+chr3 cells) was “did not show a significant effect”.

With `Cc1cc2c(C(C)C)c(O)c(O)c(C=O)c2c(O)c1-c1c(C)cc2c(C(C)C)c(O)c(O)c(C=O)c2c1O` [gossypol, 7-(8-formyl-1,6,7-trihydroxy-3-methyl-5-propan-2-ylnaphthalen-2-yl)-2,3,8-trihydroxy-6-methyl-4-propan-2-ylnaphthalene-1-carbaldehyde] the “outcome of secondary screen: oxaliplatin-induced MSI and oxaliplatin-mediated cytotoxicity” value (HCT116-(CA)13 cells [2]) was “most promising antioxidants; also recorded: suppress oxaliplatin-induced MSI while enhancing oxaliplatin-mediated cytotoxicity”, the “effect” value (HCT116 cells) was “enhanced oxaliplatin-mediated cytotoxicity in a concentration-dependent manner” and the “effect” value (HCT116+chr3 cells) was “enhanced oxaliplatin-mediated cytotoxicity in a concentration-dependent manner”.
